Source: the SangsterLogP compilation

Assay: method code SF-AS, from DOI: 10.1002/jps.2600771105, PMID: 3225751
Conditions: pH 1.0

Row | Compound | logD
1 | CCCC1(CCC)C(=O)NC(=O)NC1=O | 1.75
2 | CC(C)C1(C)C(=O)NC(=O)NC1=O | 0.54
3 | C=CCC1(C(C)(C)C)C(=O)NC(=O)NC1=O | 1.64
4 | CC(C)C1(C(C)C)C(=O)NC(=O)NC1=O | 1.56
5 | CCCCC1(CCCC)C(=O)NC(=O)NC1=O | 2.7
6 | CCCC1(CCC)C(=O)NC(=S)NC1=O | 2.66
7 | CCC1(CC)C(=O)NC(=S)NC1=O | 1.5
8 | CC(C)C1C(=O)NC(=O)NC1=O | -0.02
9 | CCC1(C(C)(C)C)C(=O)NC(=O)NC1=O | 1.38
10 | CC(C)(C)C1(Cl)C(=O)NC(=O)NC1=O | 0.82
11 | CC1(C)C(=O)NC(=S)NC1=O | 0.5
12 | CCCCC1(CC)C(=O)NC(=O)NC1=O | 1.73
13 | CC(C)(C)C1C(=O)NC(=O)NC1=O | 0.28
14 | CC(C)(C)C1(C)C(=O)NC(=O)NC1=O | 0.8
